Consider five molecules from patent US11253498B2, “Pharmaceutical composition for treatment of bone-related disease” (Nexyon Biotech Co., Ltd., priority 2017, dated 2022).

Assay [1] has as its system preosteoblast cells. Kind of assay: Differentiation into osteoblasts, alizarin red S staining, cholesterol sulphate with or without Formula 2 (Example 2-2). The assay is classed as cell-based, mice. Particulars: FIG. 8. As for the experimental part: The calvarium was removed from 1- to 3-day-old mice, and then subjected to enzymatic treatment with 1 mg/ml collagenase and 2 mg/ml dispase, to obtain preosteoblast cells. […] Then, differentiation into osteoblasts was induced. Replacement of the medium for differentiation was performed at 2- to 3-day intervals and differentiation was induced for a total of 14 to 21 days. Alizarin red S staining was used to evaluate the differentiation into osteoblasts, thereby quantitatively evaluate the degree of mineralized nodule production. The differentiated cells were fixed in 10% neutral formalin at 4° C. for 20 minutes, and then stained with 1.36% alizarin red solution (pH 4.1 to 4.3) for 40 minutes. The stained pattern was photographed or scanned. […] The degree of differentiation into osteoblasts is illustrated in FIG. 8.

For assay [2], the system named is ovary-extracted mouse model. Kind of assay: Drug administration in ovary-extracted mouse model, femur micro-CT (Example 2-1). The format is in vivo, C57BL/6 female mice. Particulars: 5 mg/kg oral, once a day, five days a week, 4 weeks; vs OVX group receiving vehicle only; FIG. 7. The source says: Twenty-four 8-week-old C57BL/6 female mice were randomly divided into three groups, that is, control group (sham), ovary-extracted group (OVX), and OVX+Formula 2 group obtained by administering the compound of Formula 2 to the ovary-extracted group, each group consisting of 8 mice. All three groups were anesthetized using zoletil and rompun. Then, the OVX and OVX+Formula 2 groups were subjected to ovary extraction, and then sutured. The control group was subjected to ovary exposure, and then sutured without ovarian removal. Osteoporosis was induced for 4 weeks.
Starting from 4 weeks after ovarian extraction, on five days a week and once a day, the control group and the OVX group orally received 200 μl of vehicle (tetrahydrofuran:PEG-400:water=1:6:3 in volume), and the OVX+Formula 2 group orally received 200 μl obtained by mixing 5 mg/kg of compound of Formula 2 with a vehicle.
After oral administration for 4 weeks, all mice were sacrificed and the femur was extracted therefrom. The extracted femur was fixed in 10% neutral formalin. Photographs were taken at 7.1 μm voxel size using Skyscan 1173 micro-CT machine, and then bone density was analyzed by CTAn program. The results are illustrated in FIG. 7.

The subject of assay [3] is preosteoblast cells. Kind of assay: Osteoblast mineralized nodules, alizarin red staining (Example 1-2). The assay is classed as cell-based, mice. As to conditions: vs negative control (0 μM); for amount of pigments colored in the nodules (differentiation of preosteoblast cells): alizarin red staining, 21 days, 0 to 50 μM, FIG. 1; for effect on the differentiation into osteoblasts (quantified, absorbance 570 nm): concentration series, FIG. 2 and FIG. 3. As for the experimental part: In order to isolate preosteoblast cells, the calvarium was removed from 1- to 3-day-old mice, and then preosteoblast cells were obtained via a process in which the calvarium was subjected to treatment with 1 mg/ml collagenase and 2 mg/ml dispase.
Here, the medium for differentiation induction was replaced with fresh medium at 2- to 3-day intervals, and differentiation induction was performed for a total of 21 days. In order to identify the differentiation into osteoblasts, alizarin red staining was performed. Differentiation-induced cells were fixed by being incubated with 10% neutral formalin at 4° C. for 20 minutes, and then stained by being incubated with 1.36% alizarin red solution (pH 4.1 to 4.3) for 40 minutes. The results are illustrated in FIG. 1.
The results obtained by performing quantification with tauroursodeoxycholic acid, deoxycholic acid, or taurocholic acid are illustrated in FIG. 3.

On to `CC(C)CCC[C@@H](C)[C@H]1CC[C@H]2[C@@H]3CC=C4C[C@@H](OS(=O)(=O)O)CC[C@]4(C)[C@H]3CC[C@]12C` [Formula 1, [(3S,8S,9S,10R,13R,14S,17R)-10,13-dimethyl-17-[(2R)-6-methylheptan-2-yl]-2,3,4,7,8,9,11,12,14,15,16,17-dodecahydro-1H-cyclopenta[a]phenanthren-3-yl] hydrogen sulphate], for which the differentiation into osteoblasts entry in the assay on preosteoblast cells [1] (0 to 50 μM cholesterol sulphate alone) is “increases the differentiation into osteoblasts in a dose-dependent manner”.

Take `NS(=O)(=O)Oc1ccc2c3c(c(=O)oc2c1)CCCCC3` [Formula 2, 6-oxo-6,7,8,9,10,11-hexahydrocyclohepta[c]chromen-3-yl sulfamate]: in assay [2], the “increase in the volume of trabecular bone” value was found to be 90%. Also, the results for the differentiation into osteoblasts entry in the assay on preosteoblast cells [1] (5 μM compound of Formula 2 alone) and in the assay with preosteoblast cells [1] (5 μM compound of Formula 2 in combination with 0 to 50 μM cholesterol sulphate) were “does not increase” and “further enhances an effect of cholesterol sulphate”, respectively. On to `C[C@H](CCC(=O)O)[C@H]1CC[C@H]2[C@@H]3CC[C@@H]4C[C@H](O)CC[C@]4(C)[C@H]3C[C@H](O)[C@]12C` [deoxycholic acid], for which the “amount of pigments colored in the nodules (differentiation of preosteoblast cells)” value with preosteoblast cells [3] is listed as “no effect”. For `C[C@H](CCC(=O)NCCS(=O)(=O)O)[C@H]1CC[C@H]2[C@@H]3[C@H](O)C[C@@H]4C[C@H](O)CC[C@]4(C)[C@H]3C[C@H](O)[C@]12C` [taurocholic acid], in the assay with preosteoblast cells [3], the “amount of pigments colored in the nodules (differentiation of preosteoblast cells)” value was “no effect” and the “effect on the differentiation into osteoblasts (quantified, absorbance 570 nm)” value is “no significant difference”. Turning to `C[C@H](CCC(=O)NCCS(=O)(=O)O)[C@H]1CC[C@H]2[C@@H]3[C@@H](O)C[C@@H]4C[C@H](O)CC[C@]4(C)[C@H]3CC[C@]12C` [tauroursodeoxycholic acid], in the assay with preosteoblast cells [3], the “amount of pigments colored in the nodules (differentiation of preosteoblast cells)” value is given as “no effect” and the “effect on the differentiation into osteoblasts (quantified, absorbance 570 nm)” value is given as “no significant difference”.
